Where “and” joins values, the source holds several entries; their conditions need not be identical. Equal entries are not always repeated. Entries after “also recorded” stand apart in the source; their conditions may differ. Marks after values point to notes of the source that are not given here.
Key:
[1] = target: enzyme and uptake assay panel targets (Table 36) (Mus musculus, UniProt P29477); experiment: biochemical; format: biochemical; settings: inducible NOS; reference compound
rat hippocampal cultures [2] = experiment: cells; format: cell-based; settings: for % of Control (CFDA) / CFDA signal, Mean: CBD 10 μM + 10 μM hydrogen peroxide
rat hippocampal cultures [3] = experiment: Propidium iodide cell death assay, protection from hydrogen peroxide toxicity; format: cell-based; settings: for Cell death (Propidium Iodide), % of Control / Cell death (Propidium Iodide), Mean / Cell death (Propidium Iodide), individual values: 5 hours; for % of Control (PI) / PI signal, replicate wells: CBD 10 μM + 10 μM hydrogen peroxide
[4] = target: enzyme and uptake assay panel targets (Table 36) (Homo sapiens, UniProt O00408); experiment: biochemical; format: biochemical; settings: PDE2A1 (h); reference compound
[5] = target: enzyme and uptake assay panel targets (Table 36) (Homo sapiens, UniProt Q9BYF1); experiment: biochemical; format: biochemical; settings: ACE-2 (h); reference compound
[6] = 0.1 μM + 10 μM hydrogen peroxide, 5 hours, DMSO
[7] = 1 μM + 10 μM hydrogen peroxide, 5 hours, DMSO
[8] = 10 μM + 10 μM hydrogen peroxide, 5 hours, DMSO
[9] = 100 μM + 10 μM hydrogen peroxide, 5 hours, DMSO
[10] = 300 μM + 10 μM hydrogen peroxide, 5 hours, DMSO
[11] = 0.1 μM + 10 μM hydrogen peroxide, DMSO
[12] = 1 μM + 10 μM hydrogen peroxide, DMSO
[13] = 10 μM + 10 μM hydrogen peroxide, DMSO
[14] = 100 μM + 10 μM hydrogen peroxide, DMSO
[15] = 300 μM + 10 μM hydrogen peroxide, DMSO
[16] = 5 h, Experiment 9 (vehicle plates, Tables 17 and 18)
[17] = positive control CBD + HP 10 μM, 5 hours
[18] = 5 h, Experiment 10 (vehicle plates, Tables 19 and 20)
[19] = positive control CBD + HP 10 μM
[20] = Example 13, CFDA, DMSO, 10 μM hydrogen peroxide, 5 h, 0.1 to 300 μM tested
[21] = Example 13, PI, DMSO, 10 μM hydrogen peroxide, 5 h, 0.1 to 300 μM tested

Chain of enzyme and uptake assay panel targets (Table 36) (Homo sapiens, UniProt Q9BYF1) (Q9BYF1 18-805): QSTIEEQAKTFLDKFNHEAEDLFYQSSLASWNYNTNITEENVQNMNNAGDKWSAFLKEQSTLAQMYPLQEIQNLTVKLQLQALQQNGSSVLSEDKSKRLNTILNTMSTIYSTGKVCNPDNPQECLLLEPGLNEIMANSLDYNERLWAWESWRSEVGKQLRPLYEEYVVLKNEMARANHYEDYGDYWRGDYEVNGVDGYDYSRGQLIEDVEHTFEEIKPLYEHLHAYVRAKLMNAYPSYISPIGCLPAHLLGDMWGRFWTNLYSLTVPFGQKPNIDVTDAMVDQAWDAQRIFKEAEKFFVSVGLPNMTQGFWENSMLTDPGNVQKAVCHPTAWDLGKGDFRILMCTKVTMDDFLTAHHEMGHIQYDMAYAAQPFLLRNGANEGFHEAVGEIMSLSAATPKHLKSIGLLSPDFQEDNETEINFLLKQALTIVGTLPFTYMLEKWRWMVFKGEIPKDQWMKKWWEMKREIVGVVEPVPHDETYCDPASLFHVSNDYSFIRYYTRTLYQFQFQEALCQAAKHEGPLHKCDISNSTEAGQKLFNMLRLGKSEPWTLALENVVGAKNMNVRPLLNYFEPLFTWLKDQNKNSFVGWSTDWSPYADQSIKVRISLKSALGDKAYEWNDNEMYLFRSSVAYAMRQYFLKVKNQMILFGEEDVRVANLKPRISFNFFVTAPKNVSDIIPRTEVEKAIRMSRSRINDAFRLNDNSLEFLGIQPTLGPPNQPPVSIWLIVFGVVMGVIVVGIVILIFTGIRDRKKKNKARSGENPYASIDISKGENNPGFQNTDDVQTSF
Chain of enzyme and uptake assay panel targets (Table 36) (Homo sapiens, UniProt O00408) (O00408 whole entry): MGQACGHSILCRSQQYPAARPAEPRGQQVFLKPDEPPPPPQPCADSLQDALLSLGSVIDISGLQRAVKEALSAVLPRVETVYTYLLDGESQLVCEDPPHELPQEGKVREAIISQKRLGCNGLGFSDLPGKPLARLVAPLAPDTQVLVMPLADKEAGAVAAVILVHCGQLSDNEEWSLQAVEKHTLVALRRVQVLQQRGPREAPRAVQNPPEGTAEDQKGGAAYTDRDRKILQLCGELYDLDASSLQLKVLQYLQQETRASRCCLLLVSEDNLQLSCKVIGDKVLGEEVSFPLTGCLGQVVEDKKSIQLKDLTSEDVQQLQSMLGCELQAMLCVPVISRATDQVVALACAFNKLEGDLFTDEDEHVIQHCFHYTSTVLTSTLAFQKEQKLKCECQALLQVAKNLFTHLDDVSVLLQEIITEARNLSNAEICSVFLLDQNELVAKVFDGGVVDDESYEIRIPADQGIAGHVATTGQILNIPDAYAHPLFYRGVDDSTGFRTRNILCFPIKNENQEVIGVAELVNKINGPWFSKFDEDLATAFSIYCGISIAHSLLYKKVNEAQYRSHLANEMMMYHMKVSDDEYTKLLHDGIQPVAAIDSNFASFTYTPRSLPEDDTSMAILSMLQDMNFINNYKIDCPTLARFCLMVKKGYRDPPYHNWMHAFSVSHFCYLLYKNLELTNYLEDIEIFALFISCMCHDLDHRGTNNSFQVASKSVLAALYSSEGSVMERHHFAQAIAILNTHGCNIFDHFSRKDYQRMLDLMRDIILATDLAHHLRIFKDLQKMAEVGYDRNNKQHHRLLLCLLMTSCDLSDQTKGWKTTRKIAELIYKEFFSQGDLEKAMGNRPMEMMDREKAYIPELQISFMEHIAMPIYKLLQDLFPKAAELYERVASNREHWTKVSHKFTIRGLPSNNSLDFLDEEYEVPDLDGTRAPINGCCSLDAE
Chain of enzyme and uptake assay panel targets (Table 36) (Mus musculus, UniProt P29477) (P29477 whole entry): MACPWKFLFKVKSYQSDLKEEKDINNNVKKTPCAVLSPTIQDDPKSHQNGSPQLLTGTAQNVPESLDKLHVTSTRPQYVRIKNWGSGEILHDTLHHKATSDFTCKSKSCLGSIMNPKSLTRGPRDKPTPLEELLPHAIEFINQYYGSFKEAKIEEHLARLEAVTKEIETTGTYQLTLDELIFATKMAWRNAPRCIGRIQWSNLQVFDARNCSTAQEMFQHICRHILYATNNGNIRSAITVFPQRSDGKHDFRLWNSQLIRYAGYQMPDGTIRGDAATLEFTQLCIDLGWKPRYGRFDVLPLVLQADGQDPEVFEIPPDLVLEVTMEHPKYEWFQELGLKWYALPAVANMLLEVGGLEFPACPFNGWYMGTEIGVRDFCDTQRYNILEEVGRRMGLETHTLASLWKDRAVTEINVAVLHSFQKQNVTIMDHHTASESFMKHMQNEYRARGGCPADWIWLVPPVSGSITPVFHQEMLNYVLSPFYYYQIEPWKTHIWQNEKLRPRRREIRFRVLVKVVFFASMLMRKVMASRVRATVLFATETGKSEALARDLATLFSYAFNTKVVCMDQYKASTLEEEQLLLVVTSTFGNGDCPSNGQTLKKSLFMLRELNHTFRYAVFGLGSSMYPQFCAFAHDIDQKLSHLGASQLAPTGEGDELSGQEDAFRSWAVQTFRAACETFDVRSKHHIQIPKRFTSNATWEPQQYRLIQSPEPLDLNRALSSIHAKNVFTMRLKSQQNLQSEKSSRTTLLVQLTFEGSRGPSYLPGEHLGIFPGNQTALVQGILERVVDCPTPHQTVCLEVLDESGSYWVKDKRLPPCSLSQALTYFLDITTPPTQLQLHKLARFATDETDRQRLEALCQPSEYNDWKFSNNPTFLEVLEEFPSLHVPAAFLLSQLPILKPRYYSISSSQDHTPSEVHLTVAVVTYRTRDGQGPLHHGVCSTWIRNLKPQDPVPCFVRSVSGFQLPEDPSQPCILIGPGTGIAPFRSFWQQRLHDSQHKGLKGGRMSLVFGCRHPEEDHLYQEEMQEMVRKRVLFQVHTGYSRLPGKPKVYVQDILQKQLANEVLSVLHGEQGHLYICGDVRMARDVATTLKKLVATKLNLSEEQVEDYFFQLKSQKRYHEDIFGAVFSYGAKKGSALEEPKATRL

Compound: CC(=N)NCc1cccc(CN)c1 [Compound 1400W]
- IC50 [1]: 40 nM
- nH [1]: 1.4

Compound: [2H]C([2H])([2H])C(O)(c1nc2ccc(Cl)cc2cc1N)C([2H])([2H])[2H] [ALD6]
- Neuronal viability (CFDA), % of Control (rat hippocampal cultures [2]; [6]): 59 ± 3%
- Neuronal viability (CFDA), Mean (rat hippocampal cultures [2]; [6]): 34394
- Neuronal viability (CFDA), % of Control (rat hippocampal cultures [2]; [7]): 65 ± 5%
- Neuronal viability (CFDA), Mean (rat hippocampal cultures [2]; [7]): 38055
- Neuronal viability (CFDA), % of Control (rat hippocampal cultures [2]; [8]): 83 ± 4%
- Neuronal viability (CFDA), Mean (rat hippocampal cultures [2]; [8]): 48055*
- Neuronal viability (CFDA), % of Control (rat hippocampal cultures [2]; [9]): 98 ± 4%
- Neuronal viability (CFDA), Mean (rat hippocampal cultures [2]; [9]): 57123*
- Neuronal viability (CFDA), % of Control (rat hippocampal cultures [2]; [10]): 98 ± 4%
- Neuronal viability (CFDA), Mean (rat hippocampal cultures [2]; [10]): 56976*
- Neuronal viability (CFDA), individual values (rat hippocampal cultures [2]; [10]): 53184 (3×) and 59551 and 65778
- Cell death (Propidium Iodide), % of Control (rat hippocampal cultures [3]; [11]): 165 ± 15%
- Cell death (Propidium Iodide), Mean (rat hippocampal cultures [3]; [11]): 273
- Cell death (Propidium Iodide), individual values (rat hippocampal cultures [3]; [11]): 294 and 242 and 356 and 225 and 250
- Cell death (Propidium Iodide), % of Control (rat hippocampal cultures [3]; [12]): 120 ± 5%
- Cell death (Propidium Iodide), Mean (rat hippocampal cultures [3]; [12]): 198*
- Cell death (Propidium Iodide), individual values (rat hippocampal cultures [3]; [12]): 223 and 183 (2×) and 189 and 214
- Cell death (Propidium Iodide), % of Control (rat hippocampal cultures [3]; [13]): 107 ± 5%
- Cell death (Propidium Iodide), Mean (rat hippocampal cultures [3]; [13]): 176*
- Cell death (Propidium Iodide), individual values (rat hippocampal cultures [3]; [13]): 189 (2×) and 139 and 179 and 183
- Cell death (Propidium Iodide), % of Control (rat hippocampal cultures [3]; [14]): 108 ± 7%
- Cell death (Propidium Iodide), Mean (rat hippocampal cultures [3]; [14]): 178*
- Cell death (Propidium Iodide), individual values (rat hippocampal cultures [3]; [14]): 206 and 189 and 135 and 167 and 193
- Cell death (Propidium Iodide), % of Control (rat hippocampal cultures [3]; [15]): 107 ± 6%
- Cell death (Propidium Iodide), Mean (rat hippocampal cultures [3]; [15]): 176*
- Cell death (Propidium Iodide), individual values (rat hippocampal cultures [3]; [15]): 189 (2×) and 147 and 197 and 159

Compound: C=C(C)[C@@H]1CCC(C)=C[C@H]1c1c(O)cc(CCCCC)cc1O [CBD, cannabidiol, reference compound]
- % of Control (CFDA) (rat hippocampal cultures [2]; [16]): 99 ± 7%
- CFDA signal, Mean (rat hippocampal cultures [2]; [16]): 43543*
- % of Control (CFDA) (rat hippocampal cultures [2]; 5 h, Table 9 plate): 105 ± 4%
- CFDA signal, Mean (rat hippocampal cultures [2]; 5 h, Table 9 plate): 48894*
- % of Control (CFDA) (rat hippocampal cultures [2]; 5 h, Table 11 plate): 103 ± 5%
- CFDA signal, Mean (rat hippocampal cultures [2]; 5 h, Table 11 plate): 44366*
- % of Control (CFDA) (rat hippocampal cultures [2]; 5 h, Table 13 plate): 102 ± 12%
- CFDA signal, Mean (rat hippocampal cultures [2]; 5 h, Table 13 plate): 40858*
- % of Control (CFDA) (rat hippocampal cultures [2]; 5 h, Table 15 plate): 100 ± 7%
- CFDA signal, Mean (rat hippocampal cultures [2]; 5 h, Table 15 plate): 41741*
- Neuronal viability (CFDA), % of Control (rat hippocampal cultures [2]; [17]): 101 ± 3% and 97 ± 4%
- Neuronal viability (CFDA), Mean (rat hippocampal cultures [2]; [17]): 57221* and 57590* and 55059*
- % of Control (PI) (rat hippocampal cultures [3]; [18]): 112 ± 7%
- PI signal, replicate wells (rat hippocampal cultures [3]; [18]): 184 and 156 and 180
- % of Control (PI) (rat hippocampal cultures [3]; 5 h, Table 10 plate): 97 ± 9%
- PI signal, replicate wells (rat hippocampal cultures [3]; 5 h, Table 10 plate): 117 and 180 and 121 and 192
- % of Control (PI) (rat hippocampal cultures [3]; 5 h, Table 12 plate): 102 ± 11%
- PI signal, replicate wells (rat hippocampal cultures [3]; 5 h, Table 12 plate): 125 and 117 (2×) and 180 (2×)
- % of Control (PI) (rat hippocampal cultures [3]; 5 h, Table 14 plate): 108 ± 11%
- PI signal, replicate wells (rat hippocampal cultures [3]; 5 h, Table 14 plate): 121 and 200 and 180 and 117
- % of Control (PI) (rat hippocampal cultures [3]; 5 h, Table 16 plate): 103 ± 8%
- PI signal, replicate wells (rat hippocampal cultures [3]; 5 h, Table 16 plate): 129 and 184 and 180 and 117
- Cell death (Propidium Iodide), % of Control (rat hippocampal cultures [3]; [19]): 93 ± 9% and 91 ± 10% and 91 ± 8%
- Cell death (Propidium Iodide), Mean (rat hippocampal cultures [3]; [19]): 154* and 136* and 145*
- Cell death (Propidium Iodide), individual values (rat hippocampal cultures [3]; [19]): 171 and 123 and 197 and 119 and 83 and 147 and 164 and 139 and 104 and 175

Compound: CCCCCC[C@@H]([C@@H](C)O)n1cnc2c(N)ncnc21 (racemic) [EHNA]
- IC50 [4]: 1100 nM
- nH [4]: 0.8

Compound: CC(C)(O)c1nc2ccccc2nc1N [ALD-2]
- EC50 ± SE (rat hippocampal cultures [2]; [20]): Inactive
- Full Efficacy Concentration (rat hippocampal cultures [2]; [20]): Inactive
- No effect Concentration (rat hippocampal cultures [2]; [20]): Inactive
- EC50 ± SE (rat hippocampal cultures [3]; [21]): Inactive
- Full Efficacy Concentration (rat hippocampal cultures [3]; [21]): Inactive
- No effect Concentration (rat hippocampal cultures [3]; [21]): Inactive
- protection from cell death (rat hippocampal cultures [3]; PI, 0.1 to 300 μM, DMSO, 10 μM hydrogen peroxide, 5 h): no statistically significant protection from cell death; also recorded: did not produce statistically significant protection from cell death

Compound: CC(=O)NCC(=O)N[C@@H](CC(=O)O)C(=O)N[C@@H](Cc1ccc(O)cc1)C(=O)N[C@@H](CO)C(=O)N[C@@H](Cc1c[nH]cn1)C(=O)N[C@H]1CSSC[C@@H](C(=O)N[C@H](C(=O)N[C@@H](Cc2ccc(O)cc2)C(=O)N2CCC[C@H]2C(=O)N[C@@H](CC(=O)O)C(=O)N2CCC[C@H]2C(=O)N[C@@H](CCC(=O)O)C(=O)NCC(=O)NCC(=O)NCC(N)=O)[C@@H](C)O)NC(=O)[C@H](CCCCN)NC(=O)[C@H](Cc2c[nH]c3ccccc23)NC(=O)[C@H](Cc2c[nH]c3ccccc23)NC(=O)[C@@H]2CCCN2C(=O)[C@H](Cc2ccc(O)cc2)NC(=O)[C@H](Cc2ccc(O)cc2)NC(=O)[C@H](CCCNC(=N)N)NC(=O)[C@H](CC(C)C)NC(=O)[C@@H]2CCCN2C(=O)[C@H](CO)NC1=O [Ac-GG-26-NH2]
- IC50 [5]: 290 nM
- nH [5]: 2.4

— patent US12240816B2, “Deuterated compounds and uses thereof” (Aldeyra Therapeutics, Inc., priority 2015, dated 2025)
